In ChEMBL document CHEMBL3425435, “4,6-Diarylaminothiazines as BACE1 Inhibitors and Their Use for the Reduction of Beta-Amyloid Production” (ACS Med Chem Lett, 2015):

biological target: Beta-secretase 1 (Homo sapiens, UniProt P56817); experiment: Inhibition of BACE1 in human H4 cells stably transfected with APP751 containing Swedish mutation assessed as reduction in Abeta (1 to 40) and Abeta (1 to 42) production incubated for 19 hrs; type: cell-based
Sequence (P56817 whole entry): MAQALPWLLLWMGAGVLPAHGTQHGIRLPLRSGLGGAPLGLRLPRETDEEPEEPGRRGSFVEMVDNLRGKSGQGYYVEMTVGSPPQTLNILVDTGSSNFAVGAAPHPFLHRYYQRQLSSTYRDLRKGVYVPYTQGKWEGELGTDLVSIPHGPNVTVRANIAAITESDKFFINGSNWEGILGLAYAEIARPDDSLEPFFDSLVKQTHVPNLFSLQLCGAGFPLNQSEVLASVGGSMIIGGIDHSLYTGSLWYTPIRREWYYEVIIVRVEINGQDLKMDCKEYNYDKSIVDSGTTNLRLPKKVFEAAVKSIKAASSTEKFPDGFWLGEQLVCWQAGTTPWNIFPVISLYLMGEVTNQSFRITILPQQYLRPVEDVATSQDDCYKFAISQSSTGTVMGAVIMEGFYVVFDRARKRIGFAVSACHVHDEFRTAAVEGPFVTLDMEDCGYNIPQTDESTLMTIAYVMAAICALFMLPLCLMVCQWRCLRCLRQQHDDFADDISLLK

IC50 [nM]	Compound
87	Cc1noc(C)c1[C@@H]1C[C@@](C)(c2cc(-c3cccnc3C#N)c(F)cc2F)N=C(N)S1
8	Cc1noc(C)c1[C@@H]1C[C@@](C)(c2cc(-c3cncnc3)c(F)cc2F)N=C(N)S1
110	Cc1noc(CC(C)(C)O)c1[C@@H]1C[C@@](C)(c2ccc(F)cc2F)N=C(N)S1

Second part, the molecule before the results:

Compound	IC50 [nM]
CC#Cc1cncc(-c2cc(Cl)c([C@]3(C)C[C@@H](c4c(C)noc4C)SC(N)=N3)s2)c1	30
Cc1noc(C)c1[C@@H]1C[C@@H](c2cc(NC(=O)c3ccc(Br)cn3)ccc2F)N=C(N)S1	22
Cc1noc(C)c1[C@@H]1C[C@@H](c2cccc(-c3cncnc3)c2)N=C(N)S1	230
Cc1noc(C)c1[C@@H]1C[C@@H](c2cc(-c3cccc(C#N)c3)cs2)N=C(N)S1	300
Cc1noc(C)c1[C@@H]1C[C@@H](c2cc(-c3cncnc3)c(F)cc2F)N=C(N)S1	200
CC#Cc1cncc(-c2csc([C@@H]3C[C@@H](c4c(C)noc4C)SC(N)=N3)c2)c1	60
